# EP4745134A1 (Jiangsu Yahong Meditech Co., Ltd., priority 2023, dated 2025)
# Where two headings read alike, the source gives them in different places.
# Tests used:
# HCT116-WT cells = experiment: Inhibitory activity against cell proliferation (CellTiter Glo, 6 days), HCT116-WT; format: cell-based; settings: 144 h
# How it was run: (§1)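 Luminescence read-out (CellTiter Glo, 10 min shaking at room temperature) after 6 days of compound exposure; IC50 fitted against DMSO controls. Top dose 10000 nM, 4-fold steps, 8 points; 250 cells/well in McCoy's 5A + 10% FBS.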
# PRMT5-MTA = PRMT5-MTA (Homo sapiens, UniProt O14744); experiment: Enzymatic inhibitory activity against PRMT5-MTA (AlphaScreen); format: biochemical
# Chain of PRMT5-MTA (O14744 whole entry): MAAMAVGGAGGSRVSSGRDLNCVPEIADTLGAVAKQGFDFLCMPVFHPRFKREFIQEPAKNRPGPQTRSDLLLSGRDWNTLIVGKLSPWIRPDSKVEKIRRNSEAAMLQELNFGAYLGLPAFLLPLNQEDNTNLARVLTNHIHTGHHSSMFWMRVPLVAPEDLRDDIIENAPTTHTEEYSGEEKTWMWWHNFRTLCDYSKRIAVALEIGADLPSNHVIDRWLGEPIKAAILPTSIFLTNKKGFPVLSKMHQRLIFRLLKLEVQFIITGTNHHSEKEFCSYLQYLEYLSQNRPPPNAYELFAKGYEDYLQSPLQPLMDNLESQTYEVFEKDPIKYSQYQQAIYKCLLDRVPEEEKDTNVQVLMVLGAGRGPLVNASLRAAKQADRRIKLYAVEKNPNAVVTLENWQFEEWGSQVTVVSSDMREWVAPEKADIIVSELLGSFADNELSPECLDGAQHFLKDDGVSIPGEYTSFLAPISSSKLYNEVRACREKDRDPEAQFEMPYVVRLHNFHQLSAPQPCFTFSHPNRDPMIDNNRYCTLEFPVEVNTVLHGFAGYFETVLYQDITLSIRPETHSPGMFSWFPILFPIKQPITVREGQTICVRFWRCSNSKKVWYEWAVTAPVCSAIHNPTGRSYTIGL
# Chain of PRMT5-MTA (Q9BQA1 whole entry partner): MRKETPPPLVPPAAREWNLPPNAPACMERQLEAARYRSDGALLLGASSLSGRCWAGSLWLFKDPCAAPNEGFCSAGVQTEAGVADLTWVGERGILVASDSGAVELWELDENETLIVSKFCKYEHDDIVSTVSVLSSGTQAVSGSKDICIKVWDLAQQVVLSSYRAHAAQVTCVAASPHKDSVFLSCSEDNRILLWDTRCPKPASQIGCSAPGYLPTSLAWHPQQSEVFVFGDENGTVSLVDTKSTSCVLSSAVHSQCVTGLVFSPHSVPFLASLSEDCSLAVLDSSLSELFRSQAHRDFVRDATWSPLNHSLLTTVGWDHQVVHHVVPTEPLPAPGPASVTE
# How it was run: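 PRMT5/[…] (1 nM) was preincubated for 30 min at room temperature with 1 µM […] and 2.5 µM SAM, then exposed to compound (10-point, 3-fold from 1000 nM) for 15 min at 23 °C. Histone H4 substrate (5 nM) was added and reacted for 45 min at 23 °C. Symmetric dimethyl-R3 H4 was detected by AlphaScreen and IC50 calculated.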
# HCT116 MTAP KO cells = experiment: Inhibitory activity against cell proliferation (CellTiter Glo, 6 days), HCT116 MTAP KO; format: cell-based; settings: for IC50: Homo sapiens, HCT-116, 144 h; for Selectivity HCT 116-WT/ HCT116 MTAP KO: ratio of IC50 HCT116-WT / HCT116 MTAP KO
# How it was run: as §1
# [1] = HCT116-WT cells, 6 days, CellTiter Glo, read-out: HCT116-WT IC50
# [2] = HCT116 MTAP KO cells, 6 days, CellTiter Glo, read-out: HCT116 MTAP KO IC50
SMILES,IC50 (HCT116-WT cells; [1]),IC50 (PRMT5-MTA; read-out: IC50),IC50 (HCT116 MTAP KO cells; [2]),Selectivity HCT 116-WT/ HCT116 MTAP KO (HCT116 MTAP KO cells),IC50 (HCT116-WT cells; read-out: HCT116-WT IC50 (nM)),IC50 (PRMT5-MTA),IC50 (HCT116 MTAP KO cells; read-out: HCT116 MTAP KO IC50 (nM))
"Cn1ncc2c(N)nc3cc(Cl)c(C(=O)N4CC(F)(F)CN4c4cccc(F)c4F)cc3c21 [Example 461, (4-amino-7-chloro-1-methyl-1H-pyrazolo [4,3-c]quinolin-8-yl)(2-(2,3-difluorophenyl)-4,4-difluoropyrazolidin-1-yl)methanone]",295 nM,6.8 nM,15 nM,19.67,–,–,–
"Cn1ncc2c(N)nc3cc(Cl)c(C(=O)N4CC(F)(F)CN4c4cccc(F)n4)cc3c21 [Example 462, (4-amino-7-chloro-1-methyl-1H-pyrazolo [4,3-c]quinolin-8-yl)(4,4-difluoro-2-(6-fluoropyridin-2-yl)pyrazolidin-1-yl)methanone]",484 nM,6 nM,30 nM,16.13,–,–,–
"Cc1cc2nc(N)c3cnn(C)c3c2cc1C(=O)N1CCCN1c1ccc(C2CC2)cn1 [Example 468, (4-amino-1,7-dimethyl-1H-pyrazolo[4,3-c]quinolin-8-yl)(2-(5-cyclopropylpyridin-2-yl)pyrazolidin-1-yl)methanone]",4340 nM,3.2 nM,180 nM,24.09,–,–,–
"Cc1cc2nc(N)c3cnn(C)c3c2cc1C(=O)N1CC(C)CN1c1ncc(-c2cnn(C(F)(F)F)c2)cc1F (stereo not shown) [Example 472, (4-amino-1,7-dimethyl-1H-pyrazolo[4,3-c]quinolin-8-y1)(2-(3-fluoro-5-(1-(trifluor omethyl)-1H-pyrazol-4-yl)pyridin-2-yl)-4-methylpyrazolidin-1-yl)methanone]",971 nM,4.6 nM,30 nM,32.37,–,–,–
"Cc1cc2nc(N)c3cnn(C)c3c2cc1C(=O)N1CCCN1c1ncc(-c2cccnc2)cc1F [Example 473, (4-amino-1,7-dimethyl-1H-pyrazolo[4,3-c]quinolin-8-yl)(2-(5-fluoro-[3,3'-bipyridine]-6-yl)pyrazolidin-1-yl)methanone]",5100 nM,9 nM,91 nM,56.09,–,–,–
"Cc1cc2nc(N)c3cnn(C)c3c2cc1C(=O)N1CCCN1c1ncc(-c2cncs2)cc1F [Example 474, (4-amino-1,7-dimethyl-1H-pyrazolo[4,3-c]quinolin-8-yl)(2-(3-fluoro-5-(thiazol-5-yl)pyridin-2-yl)pyrazolidin-1-yl)methanone]",929 nM,7 nM,28 nM,33.18,–,–,–
"Cc1cc2nc(N)c3cnn(C)c3c2cc1C(=O)N1CC(C)CN1c1ncc(-c2scnc2C)cc1F (stereo not shown) [Example 475, (4-amino-1,7-dimethyl-1H-pyrazolo[4,3-c]quinolin-8-yl)(2-(3-fluoro-5-(4-methylthiazol-5-yl)pyridin-2-yl)-4-methylpyrazolidin-1-yl)methanone]",2760 nM,5.1 nM,63 nM,43.81,–,–,–
"Cc1ncc(-c2cnc(N3CC(C)CN3C(=O)c3cc4c(cc3C)nc(N)c3cnn(C)c34)c(F)c2)s1 (stereo not shown) [Example 476, (4-amino-1,7-dimethyl-1H-pyrazolo[4,3-c]quinolin-8-yl)(2-(3-fluoro-5-(2-methylthiazol-5-yl)pyridin-2-yl)-4-methylpyrazolidin-1-yl)methanone]",942 nM,5.6 nM,28 nM,33.64,–,–,–
"Cc1ncc(-c2cnc(N3CC(C)CN3C(=O)c3cc4c(cc3C)nc(N)c3cnn(C)c34)c(F)c2)cn1 (stereo not shown) [Example 477, (4-amino-1,7-dimethyl-1H-pyrazolo[4,3-c]quinolin-8-yl)(2-(3-fluoro-5-(2-methylpyrimidin-5-yl)pyridin-2-yl)-4-methylpyrazolidin-1-yl)methanone]",1460 nM,4.7 nM,28 nM,52.00,–,–,–
Cc1cc2nc(N)c3cnn(C)c3c2cc1C(=O)N1CCCN1c1ncc(-c2ccc(N3CCN(C)CC3)nc2)cc1F [Example 478],–,–,–,26.01,4320 nM,19 nM,166 nM
"Cc1cc2nc(N)c3cnn(C)c3c2cc1C(=O)N1CC(C)CN1c1ncc(-c2cnc3c(cnn3C)c2)cc1F (stereo not shown) [Example 479, (4-amino-1,7-dimethyl-1H-pyrazolo[4,3-c]quinolin-8-yl)(2-(3-fluoro-5-(1-methyl-1H-pyrazolo[3,4-b]pyridin-5-yl)pyridin-2-yl)-4-methylpyrazolidin-1-yl)methanone]",1270 nM,5.3 nM,32 nM,39.66,–,–,–
"Cc1cc2nc(N)c3cnn(C)c3c2cc1C(=O)N1CC(C)CN1c1ncc(-c2cncs2)cc1F (stereo not shown) [Example 481, (4-amino-1,7-dimethyl-1H-pyrazolo[4,3-c]quinolin-8-yl)(2-(3-fluoro-5-(thiazol-5-yl)pyridin-2-yl)-4-methylpyrazolidin-1-yl)methanone]",708 nM,3.7 nM,15 nM,47.20,–,–,–
"Cc1cc2nc(N)c3cnn(C)c3c2cc1C(=O)N1CC(C)CN1c1ncc(-c2cccnc2)cc1F (stereo not shown) [Example 484, (4-amino-1,7-dimethyl-1H-pyrazolo[4,3-c]quinolin-8-yl)(2-(5-fluoro-[3,3'-bipyridine]-6-yl)-4-methylpyrazolidin-1-yl)metha none]",836 nM,6.4 nM,15 nM,55.73,–,–,–
"Cc1cc2nc(N)c3cnn(C)c3c2cc1C(=O)N1CCCN1c1ncc(-c2cscn2)cc1F [Example 486, (4-amino-1,7-dimethyl-1H-pyrazolo[4,3-c]quinolin-8-yl)(2-(3-fluoro-5-(thiazol-4-yl)pyridin-2-yl)pyrazolidin-1-yl)methanone]",1400 nM,6.8 nM,34 nM,41.12,–,–,–
"Cc1cc2nc(N)c3cnn(C)c3c2cc1C(=O)N1CC(C)CN1c1ncc(-c2nncs2)cc1F (stereo not shown) [Example 487, (4-amino-1,7-dimethyl-1H-pyrazolo[4,3-c]quinolin-8-yl)(2-(3-fluoro-5-(1,3,4-thiadiazol-2-yl)pyridin-2-yl)-4-methylpyrazolidin-1-yl)methanone]",2350 nM,6.7 nM,58 nM,40.52,–,–,–
"Cc1cc2nc(N)c3cnn(C)c3c2cc1C(=O)N1CC(C)CN1c1ncc(-c2cscn2)cc1F (stereo not shown) [Example 488, (4-amino-1,7-dimethyl-1H-pyrazolo[4,3-c]quinolin-8-yl)(2-(3-fluoro-5-(thiazol-4-yl)pyridin-2-yl)-4-methylpyrazolidin-1-yl)methanone]",531 nM,5.3 nM,25 nM,21.24,–,–,–
Cc1cc2nc(N)c3cnn(C)c3c2cc1C(=O)N1CC(C)CN1c1ncc(C2CC2)cc1F (stereo not shown) [Example 489],1410 nM,–,54 nM,26.04,–,4.8 nM,–
"COC(C)(C)C#Cc1cnc(N2CC(C)CN2C(=O)c2cc3c(cc2C)nc(N)c2cnn(C)c23)c(F)c1 (stereo not shown) [Example 491, (4-amino-1,7-dimethyl-1H-pyrazolo[4,3-c]quinolin-8-yl)(2-(3-fluoro-5-(3-methoxy-3-methylbut-1-yn-1-yl)pyridin-2-yl)-4-methylpyrazolidin-1-yl)methanone]",2230 nM,8.6 nM,189 nM,11.81,–,–,–
"Cc1cc2nc(N)c3cnn(C)c3c2cc1C(=O)N1CC(C)CN1c1ncc(C#CCO)cc1F (stereo not shown) [Example 492, (4-amino-1,7-dimethyl-1H-pyrazolo[4,3-c]quinolin-8-yl)(2-(3-fluoro-5-(3-hydroxyprop-1-yn-1-yl)pyridin-2-yl)-4-methylpyrazolidin-1-yl)methanone]",1940 nM,3.3 nM,37 nM,52.49,–,–,–
"Cc1cc2nc(N)c3cnn(C)c3c2cc1C(=O)N1CC(C)CN1c1ncc(C#CC(C)(C)O)cc1F (stereo not shown) [Example 493, (4-amino-1,7-dimethyl-1H-pyrazolo[4,3-c]quinolin-8-yl)(2-(3-fluoro-5-(3-hydroxy-3-methyl-but-1-yn-1-yl)pyridin-2-yl)-4-methylpyrazolidin-1-yl)methanone]",1900 nM,5.1 nM,68 nM,27.94,–,–,–
"C#Cc1cnc(N2CC(C)CN2C(=O)c2cc3c(cc2C)nc(N)c2cnn(C)c23)c(F)c1 (stereo not shown) [Example 494, (4-amino-1,7-dimethyl-1H-pyrazolo[4,3-c]quinolin-8-yl)(2-(5-ethynyl-3-fluoropyridin-2-yl)-4-methylpyrazolidin-1-yl)methanone]",1000 nM,4.6 nM,29 nM,34.62,–,–,–
"Cc1cc2nc(N)c3cnn(C)c3c2cc1C(=O)N1CC(C)CN1c1ncc(C#CCF)cc1F (stereo not shown) [Example 495, (4-amino-1,7-dimethyl-1H-pyrazolo[4,3-c]quinolin-8-yl)(2-(3-fluoro-5-(3-fluoroprop-1-yn-1-yl)pyridin-2-yl)-4-methylpyrazolidin-1-yl)methanone]",1660 nM,15 nM,69 nM,24.00,–,–,–
